# Data reported in US20240360154A1, “AROYL SUBSTITUTED TRICYCLIC COMPOUND, PREPARATION METHOD THEREFOR AND USE THEREOF” (GENFLEET THERAPEUTICS (SHANGHAI) INC., priority 2020, published 2024).
# pIC50: −log10 of the molar value.
# What was measured:
# BTK = BTK (Homo sapiens (Human), UniProt Q06187); assay: BTK enzyme experiment (ADP-Glo kinase assay); assay type: biochemical; details: 10 nM BTK, ATP 125 μM, Poly(Glu4, Tyr1), 90 minutes at 20° C.; read-out: BTK(WT) IC50
# In short: (§1)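 Wild-type or C481S BTK, added as 2× solution at 10 nM, preincubated 10 min with 3-fold compound dilutions in 50 mM HEPES pH 7.5, 10 mM MgCl2, 2 mM DTT, 0.0015% Brij-35. ADP-Glo luminescence norm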
# BTK (C481S) = BTK (C481S) (Homo sapiens (Human), UniProt Q06187, C481S); assay: BTK C481S enzyme experiment (ADP-Glo kinase assay); assay type: biochemical; details: 10 nM BTK C481S, ATP 125 μM, Poly(Glu4, Tyr1), 90 minutes at 20° C.
# In short: as §1
# p-BTK (WT) = p-BTK (WT) (Homo sapiens (Human), UniProt Q06187); assay: p-BTK cell experiment, HEK293 transfected with WT-BTK plasmid (P-BTK Y223 sandwich ELISA); assay type: cell-based; details: HEK293 cells, compound cultured for two hours
# Method: (§2) Day 1: HEK293 cells (ADDEXBIO, T0011001) at logarithmic growth phase were taken, digested with enzyme EDTA, collected and counted, and 2E6 cells were inoculated in a 10 cm culture dish and cultured overnight. Day 2: A mixed solution containing 6 μg of WT-BTK/C481S-BTK plasmid and 18 μL of FuGENE HD transfection reagent was prepared by using 1000 μL of Opti-MEM. After standing at room temperature for 10 minutes, the mixed solution was slowly added to the culture dish with a pipettor and cultured overnight. Day 3: The culture dish was taken out, and the cells were digested with enzyme EDTA, collected and counted, and 1E4 cells were inoculated in a 96-well cell culture plate and cultured overnight. A 3.16-fold gradient concentration stock solution of 1000× compound was prepared using DMSO, and placed at room temperature. Day 4: A prepared 1000× compound stock solution was taken, and diluted 200-fold to 5× compound stock solution with culture medium. 5× compound stock solution was added to each cell culture well with a final concentration of 1× compound stock solution and a DMSO content of 0.1%. DMSO was used as an experimental control. After the compound was added and cultured for two hours, the residual culture medium was removed. 100 μL of cell lysis buffer was added to each well, stood on ice for 30 minutes, and ultrasonically lysed with ice water for 5 minutes. After diluting the cell lysate in proportion, 80 μL of the mixture was transfer to an ELISA plate, and 80 μL of cell lysis buffer was added to the blank well. After incubating in an incubator at 37° C. for 2 hours, the plate was taken and the antibody incubation and color development termination operation were completed according to the instructions of Pathscan P-BTK (Y223) Sandwich ELISA Kit (Cell Signaling #23843 CA), and finally the OD value was read. The inhibition rate of the compound (%)=(ODcontrol−ODcompound)/(ODcontrol−ODblank)×100% was calculated. The compound gradient dilution concentration and the corresponding cell proliferation inhibition rate were fit by using Prism 8 four-parameter method, and IC50 value was calculated.
# p-BTK (C481S) = p-BTK (C481S) (Homo sapiens (Human), UniProt Q06187, C481S); assay: p-BTK cell experiment, HEK293 transfected with C481S-BTK plasmid (P-BTK Y223 sandwich ELISA); assay type: cell-based; details: HEK293 cells, compound cultured for two hours
# Method: as §2
# TMD-8 cells = assay: TMD-8 proliferation inhibition experiment; assay type: cell-based; details: human diffuse large B lymphoma cells, three days incubation
# In short: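 Log-phase cells seeded in 384-well plates (600 TMD-8 in RPMI 1640, 2000 OCI-LY10 in IMDM, both 10% FBS), then exposed one day later to 3-fold compound dilutions at 0.25% DMSO for three days. ADP-Glo luminescence read; inhibition versus DMSO and medium-only blank, IC50 by four-parameter fit.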
# Chain of BTK (C481S) (Q06187 whole entry C481S): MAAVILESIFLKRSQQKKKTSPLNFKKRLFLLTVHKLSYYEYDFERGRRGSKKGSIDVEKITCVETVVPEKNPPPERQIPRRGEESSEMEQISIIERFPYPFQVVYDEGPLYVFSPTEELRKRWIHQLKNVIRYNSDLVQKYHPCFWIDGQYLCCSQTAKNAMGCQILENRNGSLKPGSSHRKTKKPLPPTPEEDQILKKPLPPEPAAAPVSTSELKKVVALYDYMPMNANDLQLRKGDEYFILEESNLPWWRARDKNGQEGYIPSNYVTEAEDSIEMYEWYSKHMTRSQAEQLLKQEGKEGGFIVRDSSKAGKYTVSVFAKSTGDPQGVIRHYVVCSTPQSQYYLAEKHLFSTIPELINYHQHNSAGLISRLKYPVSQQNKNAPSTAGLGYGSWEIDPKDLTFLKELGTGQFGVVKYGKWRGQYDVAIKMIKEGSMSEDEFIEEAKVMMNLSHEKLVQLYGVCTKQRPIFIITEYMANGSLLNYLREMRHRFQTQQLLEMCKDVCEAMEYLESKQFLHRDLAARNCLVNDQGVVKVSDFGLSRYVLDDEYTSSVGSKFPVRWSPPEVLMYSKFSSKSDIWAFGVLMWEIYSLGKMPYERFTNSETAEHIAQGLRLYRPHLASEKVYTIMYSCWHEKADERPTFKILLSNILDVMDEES
# Chain of p-BTK (C481S) (Q06187 whole entry C481S): as above
# Chain of BTK (Q06187 whole entry): as the sequence (Q06187 whole entry C481S) above, with S481C counted along it
# Chain of p-BTK (WT) (Q06187 whole entry): as the sequence (Q06187 whole entry C481S) above, with S481C counted along it
Compound,pIC50 (BTK),pIC50 (BTK (C481S)),pIC50 (p-BTK (WT)),pIC50 (p-BTK (C481S)),pIC50 (TMD-8 cells),"pIC50 (TMD-8 cells; Homo sapiens, TMD8, 72 h)"
"CC(=O)N1CC[C@]2(C1)Nc1c(cnc3[nH]cc(C(=O)c4ccc(Oc5ccccc5)cc4Cl)c13)NC2=O (single isomer, unassigned) [Z4-1]",7.77,8.17,7.15,7.01,6.52,
"C[C@@]1(CO)Nc2c(cnc3[nH]cc(C(=O)c4ccc(Oc5ccccc5)cc4Cl)c23)NC1=O (single isomer, unassigned) [Z9-2]",8.02,7.97,7.20,6.87,7.13,
"O=C(c1ccc(Oc2ccccc2)cc1Cl)c1c[nH]c2ncc3c(c12)N[C@]1(CCCOC1)C(=O)N3 (single isomer, unassigned) [Z16-1]",8.12,8.04,7.76,7.44,7.37,
"O=C(c1ccc(Oc2ccccc2)cc1Cl)c1c[nH]c2ncc3c(c12)N[C@@]1(CCCOC1)C(=O)N3 (single isomer, unassigned) [Z16-2]",8.30,8.25,7.98,7.98,7.64,
"O=C(c1ccc(Oc2ccccc2)cc1Cl)c1c[nH]c2ncc3c(c12)N[C@@]1(CC[C@@H](O)C1)C(=O)N3 (single isomer, unassigned) [Z24-a]",8.26,8.08,7.33,7.30,6.95,
"O=C(c1ccc(Oc2ccccc2)cc1Cl)c1c[nH]c2ncc3c(c12)N[C@]1(CC[C@H](O)C1)C(=O)N3 (single isomer, unassigned) [Z24-b]",8.38,8.24,7.40,7.41,7.09,
"O=C(c1ccc(Oc2ccccc2)cc1Cl)c1c[nH]c2ncc3c(c12)N[C@]1(CC[C@@H](O)C1)C(=O)N3 (single isomer, unassigned) [Z24-c]",8.49,8.52,7.71,7.79,7.30,
"O=C(c1ccc(Oc2ccccc2)cc1Cl)c1c[nH]c2ncc3c(c12)N[C@@]1(CC[C@H](O)C1)C(=O)N3 (single isomer, unassigned) [Z24-d]",8.47,8.51,7.77,7.81,7.28,
"COC1CCC2(C1)Nc1c(cnc3[nH]cc(C(=O)c4ccc(Oc5ccccc5)cc4Cl)c13)NC2=O (single isomer, unassigned) [Z25-2, 9′-(2-chloro-4-phenoxybenzoyl)-3-methoxy-4′,7′-dihydrospiro[cyclopentane-1,2′-pyrrolo[3′,2′:5,6]pyrido[3,4-b]pyrazin]-3′(1′H)-one]",7.83,8.06,7.82,7.49,7.09,
"N#C[C@@H]1CC[C@]2(C1)Nc1c(cnc3[nH]cc(C(=O)c4ccc(Oc5ccccc5)cc4Cl)c13)NC2=O (single isomer, unassigned) [Z26-1]",7.81,7.81,7.50,7.42,7.32,

# Continued, in another order:
pIC50 (BTK),pIC50 (BTK (C481S)),pIC50 (p-BTK (WT)),pIC50 (p-BTK (C481S)),Compound,pIC50 (TMD-8 cells),"pIC50 (TMD-8 cells; Homo sapiens, TMD8, 72 h)"
7.77,7.99,6.43,6.47,CC(=O)N1CCC2(C1)Nc1c(cnc3[nH]cc(C(=O)c4ccc(Oc5ccccc5)cc4Cl)c13)NC2=O (centres unmarked) [Z4],,
7.56,7.92,7.45,7.44,CN1CCC2(C1)Nc1c(cnc3[nH]cc(C(=O)c4ccc(Oc5ccccc5)cc4F)c13)NC2=O (centres unmarked) [Z5],,
8.19,7.88,7.18,7.05,"COCC1(C)Nc2c(cnc3[nH]cc(C(=O)c4ccc(Oc5cc(C)ccn5)cc4Cl)c23)NC1=O (centres unmarked) [Z64, 9-(2-chloro-4-((4-methylpyridin-2-yl)oxy)benzoyl)-2-(methoxymethyl)-2-methyl-1,2,4,7-tetrahydro-3H-pyrrolo[3′,2′:5,6]pyrido[3,4-b]pyrazin-3-one]",,
8.37,8.70,8.60,9.00,"CC1(C)Nc2c(cnc3[nH]cc(C(=O)c4ccccc4Cl)c23)NC1=O [Z120, 9-(2-chlorobenzoyl)-2,2-dimethyl-1,2,4,7-tetrahydro-3H-pyrrolo[3′,2′:5,6]pyrido[3,4-b]pyrazin-3-one]",,
7.47,7.23,,,"COC[C@]1(C)Nc2c(cnc3[nH]cc(C(=O)c4ccc(Oc5cccc(OC)c5)cc4Cl)c23)NC1=O [Z166, (S)-9-(2-chloro-4-(3-methoxyphenoxy)benzoyl)-2-(methoxymethyl)-2-methyl-1,2,4,7-tetrahydro-3H-pyrrolo[3′,2′:5,6]pyrido[3,4-b]pyrazin-3-one]",,6.61
7.95,7.92,,,"CCOC[C@]1(C)Nc2c(cnc3[nH]cc(C(=O)c4ccc(Oc5cc(C)ccn5)cc4Cl)c23)NC1=O [Z167, (S)-9-(2-chloro-4-((4-methylpyridin-2-yl)oxy)benzoyl)-2-(ethoxymethyl)-2-methyl-1,2,4,7-tetrahydro-3H-pyrrolo[3′,2′:5,6]pyrido[3,4-b]pyrazin-3-one]",,6.43
7.58,7.74,,,"COC[C@]1(C)Nc2c(cnc3[nH]cc(C(=O)c4ccc(Oc5cccc(F)c5OC)cc4Cl)c23)NC1=O [Z173, (S)-9-(2-chloro-4-(3-fluoro-2-methoxyphenoxy)benzoyl)-2-(methoxymethyl)-2-methyl-1,2,4,7-tetrahydro-3H-pyrrolo[3′,2′:5,6]pyrido[3,4-b]pyrazin-3-one]",,6.44
8.19,7.95,,,"COC[C@]1(C)Nc2c(cnc3[nH]cc(C(=O)c4ccc(Oc5c(OC)ccc(F)c5F)cc4Cl)c23)NC1=O [Z177, (S)-9-(2-chloro-4-(2,3-difluoro-6-methoxyphenoxy)benzoyl)-2-(methoxymethyl)-2-methyl-1,2,4,7-tetrahydro-3H-pyrrolo[3′,2′:5,6]pyrido[3,4-b]pyrazin-3-one]",,7.46
7.44,7.37,,,"[2H]C([2H])([2H])Oc1c(F)cccc1Oc1ccc(C(=O)c2c[nH]c3ncc4c(c23)N[C@@](C)(COC)C(=O)N4)c(Cl)c1 [Z178, (S)-9-(2-chloro-4-(3-fluoro-2-(methoxy-d3)phenoxy)benzoyl)-2-(methoxymethyl)-2-methyl-1,2,4,7-tetrahydro-3H-pyrrolo[3′,2′:5,6]pyrido[3,4-b]pyrazin-3-one]",,6.59
8.41,8.41,8.55,8.85,"COC[C@]1(C)Nc2c(cnc3[nH]cc(C(=O)c4ccc(F)c(F)c4Cl)c23)NC1=O [Z195, (S)-9-(2-chloro-3,4-difluorobenzoyl)-2-(methoxymethyl)-2-methyl-1,2,4,7-tetrahydro-3H-pyrrolo[3′,2′:5,6]pyrido[3,4-b]pyrazin-3-one]",,
8.52,8.89,8.28,8.80,"O=C(c1ccccc1Cl)c1c[nH]c2ncc3c(c12)NC1(CCOCC1)C(=O)N3 [Z197, 9′-(2-chlorobenzoyl)-2,3,4′,5,6,7′-hexahydrospiro[pyran-4,2′-pyrrolo[3′,2′:5,6]pyrido[3,4-b]pyrazin]-3′(1′H)-one]",,
